In patent US10165779B2, “Substituted pyrazolylpyrazole derivative and use of same as herbicide” (KYOYU AGRI CO., LTD., priority 2015, dated 2019):

Assays:
Type in all cases: in vivo
[1] = system: Monochoria vaginalis; assay: Paddy herbicidal activity test; settings: irrigated paddy pot, 30 days
Experimental: (§1) After treating for 30 days in a glass greenhouse at an average atmospheric temperature of 30° C., the herbicidal efficacy thereof was investigated. Evaluation of herbicidal efficacy was carried out by comparing growth inhibition rate (%) with an untreated group, while evaluation of phytotoxicity was carried out by comparing growth inhibition rate (%) with the state of a complete eradication group, and were evaluated at 11 levels indicated below. […] 2: 20% to less than 30% 3: 30% to less than 40% 4: 40% to less than 50% 5: 50% to less than 60% 6: 60% to less than 70% 7: 70% to less than 80% […]

[2] = system: Echinochloa crus-galli; assay: Paddy herbicidal activity test; settings: irrigated paddy pot, treated at 3.5 leaf stage of Echinochloa crus-galli, 30 days
Experimental: as §1

[3] = system: Scirpus juncoides; assay: Paddy herbicidal activity test; settings: irrigated paddy pot, 30 days
Experimental: as §1

[4] = system: Amaranthus retroflexus; assay: Weed foliar treatment test (Test 3, 1.0 to 2.0 leaf stage); settings: foliar spray at 1.0 to 2.0 leaf stage of Digitaria ciliaris, 3 weeks
Experimental: (§2) Soil was filled into a 1/6000 are pot followed by seeding with Digitaria ciliaris, Chenopodium album and Amaranthus retroflexus, covering with soil, and cultivating in a glass greenhouse at an average atmospheric temperature of 25° C.
(§3) Wettable powders of Target Compound (I) shown in Table 1 prepared in compliance with the preparation examples were diluted with water to the prescribed amount of chemical and uniformly sprayed onto the weeds using 150 liters of sprayed water per 10 are when Digitaria ciliaris had grown to the 1.0 to 2.0 leaf stage.
(§4) After treating for 3 weeks in a glass greenhouse at an average atmospheric temperature of 25° C., the herbicidal efficacy thereof was investigated.
(§5) Evaluation of herbicidal efficacy was carried out in the same manner as the above-mentioned Test Example 1.

[5] = system: Digitaria ciliaris; assay: as above; settings: foliar spray at 1.0 to 2.0 leaf stage of Digitaria ciliaris, 3 weeks
Experimental: as §2, §3, §4, §5

[6] = system: Chenopodium album; assay: as above; settings: foliar spray at 1.0 to 2.0 leaf stage of Digitaria ciliaris, 3 weeks
Experimental: as §2, §3, §4, §5

[7] = system: Amaranthus retroflexus; assay: Farming soil treatment test; settings: soil surface spray prior to weed growth, 30 days
Experimental: (§6) Field soil was filled into a 1/6000 are pot followed by seeding with Digitaria cilaris, Chenopodium album and Amaranthus retroflexus and covering with soil.
(§7) Wettable powders of compounds of formula (I) shown in Table 1 prepared in compliance with the preparation examples were diluted. with water to the prescribed amount of chemical and uniformly sprayed onto each soil surface layer using 100 liters of sprayed water per 10 are prior to weed growth following seeding.
(§8) After treating for 30 days in a glass greenhouse at an average atmospheric temperature of 30° C., the herbicidal efficacy thereof was investigated.
as §5

[8] = system: Digitaria ciliaris; assay: Farming soil treatment test; settings: soil surface spray prior to weed growth, 30 days
Experimental: as §6, §7, §8, §5

[9] = system: Chenopodium album; assay: Farming soil treatment test; settings: soil surface spray prior to weed growth, 30 days
Experimental: as §6, §7, §8, §5

[10] = system: Digitaria ciliaris; assay: Weed foliar treatment test (Test 4, 4.0 to 5.0 leaf stage); settings: 10 g a.i./10a; foliar spray at 4.0 to 5.0 leaf stage of Digitaria ciliaris (plant height 10 cm to 15 cm); 20 days
Experimental: (§9) Field soil was filled into a 1/4500 are pot followed by seeding with Digitaria ciliaris and Galinsoga parviflora, covering with soil and cultivating in a glass greenhouse at an average atmospheric temperature of 25° C.
as §3, with “100” for “150”, “4.0” for “1.0”, “5.0” for “2.0”, “stage (plant height: 10 cm to 15 cm).” for “stage.”
(§10) After treating for 20 days in a glass greenhouse at an average atmospheric temperature of 25° C., the herbicidal efficacy thereof was investigated.
as §5

[11] = system: Galinsoga parviflora; assay: as above; settings: 10 g a.i./10a; foliar spray at 4.0 to 5.0 leaf stage of Digitaria ciliaris; 20 days
Experimental: as §9
as §3, with “100” for “150”, “4.0” for “1.0”, “5.0” for “2.0”, “stage (plant height: 10 cm to 15 cm).” for “stage.”
as §10, §5

[12] = system: Oryza sativa; assay: Paddy herbicidal activity test, phytotoxicity to transplanted rice; settings: rice transplanted at 2.0 leaf stage, 30 days
Experimental: as §1

SMILES | herbicidal efficacy Monochoria vaginalis ([1]; 1g a.i./10a) | herbicidal efficacy Monochoria vaginalis ([1]; 5g a.i./10a) | herbicidal efficacy Echinochloa crus-galli ([2]; 1g a.i./10a) | herbicidal efficacy Echinochloa crus-galli ([2]; 5g a.i./10a) | herbicidal efficacy Scirpus juncoides ([3]; 1g a.i./10a) | herbicidal efficacy Scirpus juncoides ([3]; 5g a.i./10a) | herbicidal efficacy Amaranthus retroflexus ([4]; 5g a.i./10a) | herbicidal efficacy Amaranthus retroflexus ([4]; 10g a.i./10a) | herbicidal efficacy Digitaria ciliaris ([5]; 5g a.i./10a) | herbicidal efficacy Digitaria ciliaris ([5]; 10g a.i./10a) | herbicidal efficacy Chenopodium album ([6]; 5g a.i./10a) | herbicidal efficacy Chenopodium album ([6]; 10g a.i./10a) | herbicidal efficacy Amaranthus retroflexus ([7]; 5g a.i./10a) | herbicidal efficacy Amaranthus retroflexus ([7]; 10g a.i./10a) | herbicidal efficacy Digitaria ciliaris ([8]; 5g a.i./10a) | herbicidal efficacy Digitaria ciliaris ([8]; 10g a.i./10a) | herbicidal efficacy Chenopodium album ([9]; 5g a.i./10a) | herbicidal efficacy Chenopodium album ([9]; 10g a.i./10a) | herbicidal efficacy Digitaria ciliaris [10] | herbicidal efficacy Galinsoga parviflora [11] | other results
CCOC(=O)N(C(=O)OC)c1c(C#N)cnn1-c1nn2c(c1Cl)CCCC2 [Compound 1, Methyl N-(3-chloro-4,5,6,7-tetrahydropyrazolo[1,5-a]pyridine-2-yl)-4-cyanopyr azol-5-yl)-N-ethoxycarbonyl Carbamate] | 10 (10: 100%) | 10 (10: 100%) | 9 (9: 90% to less than 100%) | 10 (10: 100%) | 9 (9: 90% to less than 100%) | 9 (9: 90% to less than 100%) | 10 (10: 100%) | 10 (10: 100%) | 9 (9: 90% to less than 100%) | 10 (10: 100%) | 10 (10: 100%) | 10 (10: 100%) | 9 (9: 90% to less than 100%) | 9 (9: 90% to less than 100%) | 9 (9: 90% to less than 100%) | 9 (9: 90% to less than 100%) | 9 (9: 90% to less than 100%) | 10 (10: 100%) | 9 (9: 90% to less than 100%) | 10 (10: 100%) | 
COC(=O)N(C(=O)OC)c1c([N+](=O)[O-])cnn1-c1nn2c(c1Cl)CCCC2 [Compound 3] |  |  |  |  |  |  |  |  |  |  |  |  |  |  |  |  |  |  | 10 (10: 100%) | 10 (10: 100%) | 
COC(=O)N(C(=O)OC)c1c(C#N)cnn1-c1nn2c(c1Br)CCCC2 [Compound 4] | 10 (10: 100%) | 10 (10: 100%) | 10 (10: 100%) | 10 (10: 100%) | 9 (9: 90% to less than 100%) | 10 (10: 100%) | 10 (10: 100%) | 10 (10: 100%) | 10 (10: 100%) | 10 (10: 100%) | 10 (10: 100%) | 10 (10: 100%) | 10 (10: 100%) | 10 (10: 100%) | 10 (10: 100%) | 10 (10: 100%) | 9 (9: 90% to less than 100%) | 10 (10: 100%) | 10 (10: 100%) | 10 (10: 100%) | phytotoxicity Oryza sativa ([12]; 1g a.i./10a): 0 (0 (exponent): 0% to less than 10% (growth inhibition rate)); phytotoxicity Oryza sativa ([12]; 5g a.i./10a): 1 (1: 10% to less than 20%)
COC(=O)N(C(=O)OC)c1c([N+](=O)[O-])cnn1-c1nn2c(c1Br)CCCC2 [Compound 5] | 10 (10: 100%) | 10 (10: 100%) | 9 (9: 90% to less than 100%) | 9 (9: 90% to less than 100%) | 10 (10: 100%) | 10 (10: 100%) | 10 (10: 100%) | 10 (10: 100%) | 9 (9: 90% to less than 100%) | 10 (10: 100%) | 10 (10: 100%) | 10 (10: 100%) | 10 (10: 100%) | 10 (10: 100%) | 9 (9: 90% to less than 100%) | 9 (9: 90% to less than 100%) | 10 (10: 100%) | 10 (10: 100%) | 9 (9: 90% to less than 100%) | 10 (10: 100%) | phytotoxicity Oryza sativa ([12]; 1g a.i./10a): 1 (1: 10% to less than 20%); phytotoxicity Oryza sativa ([12]; 5g a.i./10a): 1 (1: 10% to less than 20%)
CCOC(=O)N(C(=O)OCC)c1c(C#N)cnn1-c1nn2c(c1Cl)CCCC2 [Compound 6] | 10 (10: 100%) | 10 (10: 100%) | 10 (10: 100%) | 10 (10: 100%) | 9 (9: 90% to less than 100%) | 10 (10: 100%) | 10 (10: 100%) | 10 (10: 100%) | 10 (10: 100%) | 10 (10: 100%) | 10 (10: 100%) | 10 (10: 100%) | 10 (10: 100%) | 10 (10: 100%) | 10 (10: 100%) | 10 (10: 100%) | 9 (9: 90% to less than 100%) | 10 (10: 100%) | 10 (10: 100%) | 10 (10: 100%) | phytotoxicity Oryza sativa ([12]; 1g a.i./10a): 0 (0 (exponent): 0% to less than 10% (growth inhibition rate)); phytotoxicity Oryza sativa ([12]; 5g a.i./10a): 1 (1: 10% to less than 20%)
CC(C)OC(=O)N(C(=O)OC(C)C)c1c(C#N)cnn1-c1nn2c(c1Cl)CCCC2 [Compound 12] |  |  |  |  |  |  |  |  |  |  |  |  |  |  |  |  |  |  | 10 (10: 100%) | 10 (10: 100%) | 
CC(C)COC(=O)N(C(=O)OCC(C)C)c1c(C#N)cnn1-c1nn2c(c1Cl)CCCC2 [Compound 13] |  |  |  |  |  |  |  |  |  |  |  |  |  |  |  |  |  |  | 10 (10: 100%) | 10 (10: 100%) | 
C=CCOC(=O)N(C(=O)OCC=C)c1c([N+](=O)[O-])cnn1-c1nn2c(c1Cl)CCCC2 [Compound 15] |  |  |  |  |  |  |  |  |  |  |  |  |  |  |  |  |  |  | 10 (10: 100%) | 10 (10: 100%) | 
CCOC(=O)Nc1c([N+](=O)[O-])cnn1-c1nn2c(c1Cl)CCCC2 [Control agent 2.28, reference compound] |  |  |  |  |  |  |  |  |  |  |  |  |  |  |  |  |  |  |  |  | phytotoxicity Oryza sativa ([12]; 1g a.i./10a): 0 (0 (exponent): 0% to less than 10% (growth inhibition rate)); phytotoxicity Oryza sativa ([12]; 5g a.i./10a): 1 (1: 10% to less than 20%)
